Measurements: US5245034A, “Compound having vessel smooth muscle relaxation activity” (Hidaka; Kiroyoshi, priority 1988, dated 1993)
Where two headings read alike, the source gives them in different places.

Key:
[1] = test system: superior mesenteric artery (contracted by potassium chloride); assay: Vessel Smooth Muscle Relaxation Action (V.R.); format: cell-based, rabbit; settings: Oryctolagus cuniculus, read-out: V.R. (ED50)
Text: The specimen was suspended by loading a strain in Krebs-Henseleit solution through which an oxygen gas containing 5% carbon dioxide was bubbled. The specimen was contracted by adding potassium chloride to maintain a predetermined strain. Thereafter, a test compound was cumulatively administrated.

[2] = target: Calmodulin-Dependent Phosphodiesterase (Ca^2+ PDE); assay: Calmodulin-Dependent Phosphodiesterase Inhibition (Ca^2+ PDE); format: biochemical, rat; settings: [^3 H]-cGMP, 30° C.
In short: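 Partially purified rat brain Ca²⁺ PDE with calf brain calmodulin, Tris-HCl pH 8.0, MgCl2, CaCl2; [³H]-cGMP substrate, 15 min at 30 °C. Product converted by 5'-nucleotidase, [³H]-guanosine isolated on cation exchange and counted. IC50 as μM giving 50% inhibition.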

washed platelets = assay: Platelet Agglutination Inhibition (P.A.), collagen-induced; format: cell-based, human (healthy person); settings: Homo sapiens, read-out: P.A. (IC50)
Procedure: To this suspension was added one sixth volume of ACD solution, and the whole was further centrifuged at 1500×G for 5 minutes to prepare a platelet pellet. The platelet pellet was then suspended in a modified HEPES Tyrode solution to obtain about 3×10^5 /μl in washed platelet suspension.
To 270 μl of the washed platelet suspension was added 3 μl of a solution of a test compound dissolved in an appropriate medium in different concentration, and the mixture was pre-incubated at 37° C. for 2 minutes.
As a control, the above-mentioned procedure was carried out except that the test medium without a test compound was used, and the absorbance before addition of collagen and the maximum absorbance after addition of collagen were measured, and the difference between both absorbances was taken as 100% agglutination.
For test compound, the absorbance before an addition of collagen and the maximum absorbance after an addition of collagen were measured, and a percent of the inhibition was determined, compared with the control.

[3] = concentration relaxing KCl-contracted strain to 50%, cumulative administration
[4] = washed platelets, collagen, 37° C.

CN(C(Cc1ccc(O)cc1)CN1CCCN(C(=O)OCc2ccccc2)CC1)S(=O)(=O)c1cccc2cnccc12 (stereo not drawn) [Example 113]
EC50 [1, 3]: 0.88 µM
IC50 [2]: 1.2 µM
IC50 (washed platelets; [4]): 20 µM

CC(C=Cc1ccc(Cl)cc1Cl)NCCNS(=O)(=O)c1cccc2cnccc12 (stereo not drawn) [Example 156, N-[2-(2,4-Dichloro-α-Methylcinnamylamino)Ethyl]-5-Isoquinolinesulfonamide]
EC50 [1, 3]: 4.4 µM
IC50 [2]: 19 µM
IC50 (washed platelets; [4]): 19 µM

CC(C=Cc1cccc(Cl)c1)NCCNS(=O)(=O)c1cccc2cnccc12 (stereo not drawn) [Example 157]
EC50 [1, 3]: 3.2 µM
IC50 [2]: 8.6 µM
IC50 (washed platelets; [4]): 36 µM

CC(C=Cc1ccc([N+](=O)[O-])cc1)NCCNS(=O)(=O)c1cccc2cnccc12 (stereo not drawn) [Example 159]
EC50 [1, 3]: 5.1 µM
IC50 [2]: 92 µM
IC50 (washed platelets; [4]): 24 µM

CC(C=Cc1ccc(F)cc1)NCCNS(=O)(=O)c1cccc2cnccc12 (stereo not drawn) [Example 166, N-[2-(4-Fluoro-α-Methylcinnamylamino)Ethyl]-5-Isoquinolinesulfonamide]
EC50 [1, 3]: 1.4 µM
IC50 (washed platelets; [4]): 90 µM

CC(C=Cc1ccc(Br)cc1)NCCNS(=O)(=O)c1cccc2cnccc12 (stereo not drawn) [Example 167]
EC50 [1, 3]: 1.2 µM
IC50 (washed platelets; [4]): 52 µM

CC(C=Cc1ccc(C(C)C)cc1)NCCNS(=O)(=O)c1cccc2cnccc12 (stereo not drawn) [Example 168]
EC50 [1, 3]: 3.6 µM
IC50 (washed platelets; [4]): 26 µM

O=S(=O)(NCCNCC=Cc1ccc(Cl)cc1)c1cccc2cnccc12 [Example 172, N-[2-(4-Chlorocinnamylamino)ethyl]-5-Isoquinolinesulfonamide]
EC50 [1, 3]: 1 µM
IC50 [2]: 9.4 µM
IC50 (washed platelets; [4]): 51 µM

O=S(=O)(NCCNCC=Cc1ccc(Br)cc1)c1cccc2cnccc12 [Example 176, N-[2-(4-Bromophenylcinnamylamino)ethyl]-5-Isoquinolinesulfonamide]
EC50 [1]: 1.2 µM
IC50 [2]: 8.5 µM
IC50 (washed platelets): 55 µM

CC(C)c1ccc(C=CCNCCNS(=O)(=O)c2cccc3cnccc23)cc1 [Example 177]
EC50 [1, 3]: 2.7 µM
IC50 [2]: 24 µM
IC50 (washed platelets; [4]): 56 µM

O=S(=O)(NCCNCC=Cc1ccc(C(F)(F)F)cc1)c1cccc2cnccc12 [Example 179, N-[2-(4-Trifluoromethylcinnamylamino)Ethyl]-5-Isoquinolinesulfonamide]
EC50 [1, 3]: 2.8 µM
IC50 [2]: 7.8 µM
IC50 (washed platelets; [4]): 51 µM

O=S(=O)(NCCNCC=CC=CC=Cc1ccc(C(F)(F)F)cc1)c1cccc2cnccc12 [Example 181]
EC50 [1, 3]: 8.4 µM
IC50 [2]: 4.7 µM
IC50 (washed platelets; [4]): 38 µM
